The results in this text go back to patent US20230181532A1, “GRANULES FOR 3D PRINTING TECHNOLOGY” (BOARD OF REGENTS, THE UNIVERSITY OF TEXAS SYSTEM, priority 2020, published 2023).

Common to all, as to type: physicochemical
Series [1] in a line: Flow through orifice powder flow test. The text has this: A United States Pharmacopoeia (USP) compliant flowability tester, with funnel attachments (BEP2, Copley Scientific Limited, Nottingham, UK) was used for the flow-through orifice study. The purpose of this test was to stimulate the flow in a hopper or other mass transfer situations (Taylor et al., 2000). The funnel was placed 40 mm above the collecting beaker, and the beaker was placed on a measuring scale. The nozzle was fixed onto the funnel and the shutter mechanism was used to prevent any premature flow from the funnel. 100 g of the sample powder was transferred to the funnel and the test was started 30 s after the transfer (this facilitated floccule formation). The weight was recorded for the samples with respect to the time in triplicates (n=3) for each nozzle diameter (10, 15, and 25 mm) and samples (PA 12 (reference), granules, and drug). Time versus weight curves were constructed for the processed granules and the properties were compared with PA 12.

The nature of the next series: Angle of repose (AOR). The text has this:
A 100 mm circular test platform together with a digital height gauge having a range of 0-300 mm and an accuracy of 0.03 mm was used (BEP2, Copley Scientific Limited. Nottingham, UK). […] The surplus powder was collected in a tray below the test platform. The nozzle (10 mm nozzle for the angle of repose) of the funnel was placed 75 mm above the test platform, and the nozzle was secured using the shutter mechanism. 100 g of the sample (drug and granules) were placed in the funnel, and the shutter was moved gently but rapidly to allow the powder to flow. The powder formed a conical on the test platform and started overflowing. […] The height of the powder cone was measured using the digital height gauge and the diameter of the cone was 100 (diameter of the platform was 100 mm). Equation 2 was used to calculate the angle of repose.

A short description of series [2]: In vitro release testing, pH shift dissolution (USP type II paddle). The conditions noted are these: pH 2, 2 h. The method, then:
The in vitro release testing was performed using a pH shift protocol to simulate physiological conditions and contrary to the USP dissolution medium i.e., pH 7.2 phosphate buffer. […] Moreover, because of its pKa and hydrophobicity, and the amorphous nature of the drug in the samples of interest, it was important to expose it to acidic conditions before exposing it to relatively basic conditions. […] If the drug exists in its amorphous form in the formulation, it is crucial to study its stability in the acidic pH as in the physiological environment the formulation will be exposed to it first.
For this pH-shift dissolution test, the above-mentioned samples (n=3) were introduced into 750 mL of HCl-KCl buffer (pH 2, 0.1 M, hydrochloric acid-potassium chloride buffer) for 2 h using a 900 mL vessel. 150 mL of phosphate buffer (pH6.8, 0.1 M) was then introduced to each vessel shifting the pH from 2 to 6.8, with a final volume of 900 mL. […] The dissolution of the samples was tested at the final pH of 6.8 for an additional 2 h. The test was conducted using a Paddle type assembly (USP type II). […] Acetonitrile was used to dilute (2-fold) the drawn samples and the previously described method of analysis was used to quantify the API in the samples.

Molecules are shown by their SMILES.

For `COc1ccc2c(c1)c(CC(=O)O)c(C)n2C(=O)c1ccc(Cl)cc1` [IND, Indomethacin], the “flow through orifice observation” value in series [1] is recorded as “no flow throughout the test”. Moreover, in “Angle of repose (AOR)”, the “flow classification as per the AOR reference table” value is on record as “very poor”. In addition, the “angle of repose θ value” in the series “Angle of repose (AOR)” (10 mm nozzle, 100 g sample, n=3) is 58.2±0.06 °. The “dissolution behaviour in acidic environment” value in series [2] is “did not show any improvement in their solubility”.
